The record followed here is ChEMBL document CHEMBL5360611, “Mycobacterium tuberculosis PptT Inhibitors Based on Heterocyclic Replacements of Amidinoureas” (ACS Med Chem Lett, 2023).

pIC50: −log10 of the molar value. Converted amounts (≈) assume the structure as drawn. Bounds are passed on as bounds.

Series [1] addresses T1, 4'-phosphopantetheinyl transferase PptT (Mycobacterium tuberculosis, UniProt O33336).
T1 sequence (O33336 whole entry): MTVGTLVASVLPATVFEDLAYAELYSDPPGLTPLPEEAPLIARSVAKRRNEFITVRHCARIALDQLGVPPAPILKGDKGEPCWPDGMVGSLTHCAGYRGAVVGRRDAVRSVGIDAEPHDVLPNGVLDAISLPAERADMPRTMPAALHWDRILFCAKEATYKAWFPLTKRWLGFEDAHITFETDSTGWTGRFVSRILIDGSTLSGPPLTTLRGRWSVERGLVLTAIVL
In words: Inhibition of Mycobacterium tuberculosis H37Rv PptT by fluorescence polarization assay. For orientation: Fluorescence polarisation rises when a labelled molecule tumbles more slowly, as on binding a larger partner.

The target of series [2] is T1, 4'-phosphopantetheinyl transferase PptT. Put plainly: Inhibition of Mycobacterium tuberculosis H37Rv PptT by BpsA-coupled assay.
The test system of series [3] is Mycobacterium tuberculosis. Put plainly: Antimycobacterial activity against Mycobacterium tuberculosis H37Rv assessed as bacterial growth inhibition. It counts as functional.
A short description of series [4]: Lipophilicity, logD of compound at pH 7.4. Format: physicochemical. To be noted: buffer.
In series [5] the target is Voltage-dependent L-type calcium channel subunit alpha-1C (Homo sapiens, UniProt Q13936). In words: Inhibition of human Cav1.2 cardiac ion channel transfected in HEK cells by automatic patch clamp analysis. It counts as toxicity, cell-based. A general note: Patch clamp records ionic current or voltage across a cell membrane.
Series [6] addresses Sodium channel protein type 5 subunit alpha (Homo sapiens, UniProt Q14524). In words: Inhibition of human Nav1.5 channel ion channel transfected in HEK cells by automatic patch clamp analysis. Format: toxicity, cell-based.
Series [7] in a line: Cytotoxicity against human HepG2 cells. It counts as toxicity, cell-based. As to conditions: read-out: TC50 (the source's name).
For series [8], the target named is T1, 4'-phosphopantetheinyl transferase PptT. In words: Inhibition of Mycobacterium tuberculosis PptT by fluorescence polarization assay.
For series [9], the target named is Voltage-gated inwardly rectifying potassium channel KCNH2 (Homo sapiens, UniProt Q12809). Put plainly: Inhibition of hERG transfected in HEK cells by automatic patch clamp analysis. It counts as toxicity, cell-based. In general terms: Block of hERG is tested as a sign of cardiac risk.
For series [10], the target named is T1, 4'-phosphopantetheinyl transferase PptT. Put plainly: Inhibition of his-tagged Mycobacterium tuberculosis PptT expressed in Escherichia coli BL21 cells by BpsA-coupled assay.
Series [11] can be described thus: Permeability of compound in human Caco-2 cells. Format: ADME, cell-based. To be noted: read-out: permeability.
Series [12] in a line: Solubility of compound. Format: physicochemical.
Series [13] in a line: Cytotoxicity against human THP-1 cells. It counts as toxicity, cell-based. As to conditions: read-out: TC50 (the source's name).

Voltage-gated inwardly rectifying potassium channel KCNH2, sequence (Q12809 whole entry): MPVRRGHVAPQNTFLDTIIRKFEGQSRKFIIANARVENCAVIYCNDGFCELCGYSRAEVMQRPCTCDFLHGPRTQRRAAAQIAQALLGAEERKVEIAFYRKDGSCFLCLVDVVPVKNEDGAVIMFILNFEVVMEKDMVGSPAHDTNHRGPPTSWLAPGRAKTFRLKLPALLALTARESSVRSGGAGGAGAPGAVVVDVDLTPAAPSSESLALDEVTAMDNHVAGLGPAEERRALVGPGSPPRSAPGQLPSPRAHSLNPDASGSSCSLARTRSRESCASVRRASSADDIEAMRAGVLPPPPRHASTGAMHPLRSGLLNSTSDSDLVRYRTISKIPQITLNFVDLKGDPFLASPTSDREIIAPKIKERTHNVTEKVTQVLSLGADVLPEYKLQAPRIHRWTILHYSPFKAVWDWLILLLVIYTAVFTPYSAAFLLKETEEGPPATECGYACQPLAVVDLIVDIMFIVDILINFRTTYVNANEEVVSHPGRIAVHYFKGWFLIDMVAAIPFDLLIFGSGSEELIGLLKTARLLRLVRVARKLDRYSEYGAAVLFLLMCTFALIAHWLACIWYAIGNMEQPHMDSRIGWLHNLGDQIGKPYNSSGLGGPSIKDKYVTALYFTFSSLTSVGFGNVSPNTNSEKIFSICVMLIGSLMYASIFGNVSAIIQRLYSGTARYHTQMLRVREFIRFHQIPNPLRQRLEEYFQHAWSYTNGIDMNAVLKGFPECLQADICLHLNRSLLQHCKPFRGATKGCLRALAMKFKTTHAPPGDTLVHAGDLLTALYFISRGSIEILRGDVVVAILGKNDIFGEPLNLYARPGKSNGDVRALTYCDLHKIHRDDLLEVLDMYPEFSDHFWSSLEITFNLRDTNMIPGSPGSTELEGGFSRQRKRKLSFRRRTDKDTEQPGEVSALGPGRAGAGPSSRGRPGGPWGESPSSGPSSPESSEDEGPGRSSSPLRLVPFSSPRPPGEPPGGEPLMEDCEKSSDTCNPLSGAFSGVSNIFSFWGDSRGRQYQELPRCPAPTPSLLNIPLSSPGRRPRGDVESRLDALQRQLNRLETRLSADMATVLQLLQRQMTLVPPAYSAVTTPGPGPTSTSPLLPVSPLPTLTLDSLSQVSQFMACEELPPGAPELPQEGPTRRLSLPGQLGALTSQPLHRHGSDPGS
Voltage-dependent L-type calcium channel subunit alpha-1C, sequence (Q13936 whole entry): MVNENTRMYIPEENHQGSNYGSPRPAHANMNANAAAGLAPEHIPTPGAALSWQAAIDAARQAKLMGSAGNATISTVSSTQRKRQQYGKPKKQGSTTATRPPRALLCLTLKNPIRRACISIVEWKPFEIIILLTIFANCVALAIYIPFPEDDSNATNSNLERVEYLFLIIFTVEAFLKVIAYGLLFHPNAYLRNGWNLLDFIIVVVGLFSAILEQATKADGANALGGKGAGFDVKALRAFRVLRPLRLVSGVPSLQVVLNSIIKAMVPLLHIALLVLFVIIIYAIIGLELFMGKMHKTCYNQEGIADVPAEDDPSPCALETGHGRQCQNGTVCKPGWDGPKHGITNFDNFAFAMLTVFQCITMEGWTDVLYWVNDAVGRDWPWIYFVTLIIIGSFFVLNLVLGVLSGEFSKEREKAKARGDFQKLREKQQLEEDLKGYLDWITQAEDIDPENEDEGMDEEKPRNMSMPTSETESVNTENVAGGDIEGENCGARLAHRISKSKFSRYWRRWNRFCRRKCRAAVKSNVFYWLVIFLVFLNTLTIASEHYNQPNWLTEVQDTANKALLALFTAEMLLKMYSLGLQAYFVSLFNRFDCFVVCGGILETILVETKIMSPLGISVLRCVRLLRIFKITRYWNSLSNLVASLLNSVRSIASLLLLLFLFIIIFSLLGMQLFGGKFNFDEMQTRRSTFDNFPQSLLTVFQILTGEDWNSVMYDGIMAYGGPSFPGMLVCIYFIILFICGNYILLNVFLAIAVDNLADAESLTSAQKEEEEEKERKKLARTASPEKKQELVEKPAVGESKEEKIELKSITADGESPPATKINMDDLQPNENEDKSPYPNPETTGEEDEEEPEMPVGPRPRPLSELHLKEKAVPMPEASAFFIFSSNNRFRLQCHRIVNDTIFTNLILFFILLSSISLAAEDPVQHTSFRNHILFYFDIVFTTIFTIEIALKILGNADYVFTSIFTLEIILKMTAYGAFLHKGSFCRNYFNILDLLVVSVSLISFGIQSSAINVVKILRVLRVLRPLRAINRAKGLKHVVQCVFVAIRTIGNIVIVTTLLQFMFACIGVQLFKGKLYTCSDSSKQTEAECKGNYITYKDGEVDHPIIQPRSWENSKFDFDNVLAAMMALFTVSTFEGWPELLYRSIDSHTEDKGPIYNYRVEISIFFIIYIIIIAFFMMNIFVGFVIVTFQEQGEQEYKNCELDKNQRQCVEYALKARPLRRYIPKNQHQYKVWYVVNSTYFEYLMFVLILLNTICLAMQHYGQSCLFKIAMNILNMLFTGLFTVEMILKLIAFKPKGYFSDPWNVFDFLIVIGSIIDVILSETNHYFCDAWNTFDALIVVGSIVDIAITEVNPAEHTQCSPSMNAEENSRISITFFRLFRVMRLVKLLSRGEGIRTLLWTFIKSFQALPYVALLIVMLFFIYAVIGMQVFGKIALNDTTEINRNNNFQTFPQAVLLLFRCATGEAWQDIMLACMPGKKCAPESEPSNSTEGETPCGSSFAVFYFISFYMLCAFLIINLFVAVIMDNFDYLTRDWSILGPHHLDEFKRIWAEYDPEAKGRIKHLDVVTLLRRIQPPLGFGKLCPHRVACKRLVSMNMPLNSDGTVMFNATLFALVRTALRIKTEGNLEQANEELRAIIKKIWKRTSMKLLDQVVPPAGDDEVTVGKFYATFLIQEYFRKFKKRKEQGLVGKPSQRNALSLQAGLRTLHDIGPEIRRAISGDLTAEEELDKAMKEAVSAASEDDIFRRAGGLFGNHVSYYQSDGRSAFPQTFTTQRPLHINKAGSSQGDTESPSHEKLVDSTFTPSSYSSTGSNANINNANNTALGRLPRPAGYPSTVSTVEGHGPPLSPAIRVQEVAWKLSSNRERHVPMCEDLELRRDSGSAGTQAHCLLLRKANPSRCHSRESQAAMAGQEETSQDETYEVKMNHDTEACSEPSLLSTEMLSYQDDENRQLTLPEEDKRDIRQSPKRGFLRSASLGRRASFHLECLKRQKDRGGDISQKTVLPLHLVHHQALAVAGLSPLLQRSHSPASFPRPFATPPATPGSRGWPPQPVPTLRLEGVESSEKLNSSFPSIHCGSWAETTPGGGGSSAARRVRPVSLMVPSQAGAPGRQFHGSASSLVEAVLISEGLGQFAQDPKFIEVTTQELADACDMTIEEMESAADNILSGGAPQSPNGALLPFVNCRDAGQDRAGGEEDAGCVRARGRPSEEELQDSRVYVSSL

`CCNc1nc(Nc2c(CC)cccc2CC)ccc1OC`: the figures for the pIC50 in [1] and in series [2] were below 4.00 and 4.06, respectively. Besides, the MIC90 in series [3] came out at 62 µM (≈ 18.6 µg/mL).

In the case of `CCc1cccc(CC)c1Nc1cccc(NCC(C)C)n1`, the negative-log IC50 (pIC50) in [1] and in series [2] was below 4.00 throughout. The MIC90 in [3] was 17 µM (≈ 5.06 µg/mL).

`CCc1cccc(CC)c1/N=C1\CN(CC)C(=N)N1` had a pIC50 in series [2] of 4.80.

With `C=C(NCC)NC(=O)Nc1c(CC)cccc1CC`, the logD in [4] is 1.09. Moreover, the pIC50 was 5.08 in series [5]; 5.42 in [6]; 6.64 in series [8]; below 4.52 in series [9]; 5.64 in series [10]. The CC50 in series [7] and in [13] was above 30 µM throughout. Further, the MIC90 in series [3] is 3.1 µM (≈ 0.81 µg/mL). In addition, the Papp in series [11] stood at 4 ×10⁻⁶ cm/s. The compound further yielded a solubility in series [12] above 1000 µg/mL.

Take `CCNc1cc(C)cc(Nc2c(CC)cccc2CC)n1`: the pIC50 in series [2] is 5.19. Besides, the MIC90 in series [3] came to 22 µM (≈ 6.24 µg/mL).

With `CCNc1ccc(C(F)(F)F)c(Nc2c(CC)cccc2CC)n1`, the pIC50 was 4.82 in series [5]; below 4.00 in series [1]; 4.85 in series [6]; below 4.52 in [9]; 4.52 in [2]. For the same compound, in [3], the MIC90 was 43 µM (≈ 14.5 µg/mL).

Take `CCc1cccc(CC)c1Nc1cccc(NC)n1`: the pIC50 was above 5.52 in [5], 5.42 in series [6], 5.12 in series [9] and 4.70 in series [2]. For the same compound, the MIC90 in series [3] amounted to 42 µM (≈ 10.7 µg/mL).

In the case of `CCNc1cccc(Nc2c(CC(F)(F)F)cccc2CC(F)(F)F)n1`, the pIC50 is 5.89 in series [1] and below 4.00 in series [2]. In series [3], the MIC90 was above 100 µM.

Compound `CCNc1cccc(Nc2c(C(C)C)cccc2C(C)C)n1` had a pIC50 in series [1] below 4.00. The MIC90 in series [3] is above 100 µM.

On to `CCc1cccc(CC)c1Nc1cccc(NC(C)C)n1`, for which the pIC50 in [1] and in series [2] was below 4.00 each time. Also, the MIC90 in series [3] was determined as 32 µM (≈ 9.07 µg/mL).

In the case of `CCNC1=N/C(=N/c2c(Cl)cccc2Cl)CN1`, the pIC50 in [5], in series [6] and in [9] was below 4.52 each time.

Compound `CCNc1ccc(C)c(Nc2c(CC)cccc2CC)n1` gave a negative logarithm of the IC50 (pIC50) in series [2] of 5.74. The MIC90 in series [3] was 55 µM (≈ 15.6 µg/mL).

`CCNc1ccc(Cl)c(Nc2c(CC)cccc2CC)n1` showed a pIC50 in series [2] below 4.00. Further, in [3], the MIC90 was above 100 µM.

Compound `CCNc1cccc(Nc2c(CC)cc(C(=O)NC)cc2CC)n1` gave a pIC50 in [1] of 5.48. Moreover, in [3], the MIC90 turned out to be 69 µM (≈ 22.5 µg/mL).

On to `CCc1cccc(CC)c1/N=C1\CNC(=N)N1CC`, for which, in series [2], the negative-log IC50 (pIC50) was 4.08.

On to `CCNc1cccc(Nc2c(CC)cc(S(=O)(=O)NCC)cc2CC)n1`, for which, in series [1], the pIC50 is 6.00. Further, the MIC90 in [3] was above 100 µM.

Take `CCc1cccc(CC)c1Nc1cccc(NC(C)=O)n1`: the pIC50 in [1] and in series [2] was below 4.00 in each case. In addition, in [3], the MIC90 was found to be 62 µM (≈ 17.6 µg/mL).

In the case of `CCNc1ccc(F)c(Nc2c(CC)cccc2CC)n1`, the pIC50 in series [2] is 4.92. Moreover, the MIC90 in [3] is above 100 µM.

In [2], `CCNc1nc(Nc2c(CC)cccc2CC)ccc1F` showed a pIC50 of 5.14. In addition, the MIC90 in series [3] was above 100 µM.

On to `CCNc1cccc(Nc2c(CC)cccc2CC)n1`, for which the pIC50 was 5.09 in series [5]; 6.15 in series [1]; 5.16 in series [6]; 4.96 in [9]; 5.48 in series [2]. The MIC90 in [3] was 42 µM (≈ 11.3 µg/mL).

`CCNc1nc(Nc2c(CC)cccc2CC)ccc1C`: the pIC50 in series [2] was 4.64. In addition, the MIC90 in series [3] amounted to 54 µM (≈ 15.3 µg/mL).

The compound `CCNc1cccc(Nc2c(C3CC3)cccc2C2CC2)n1` had a pIC50 in series [2] of 5.08. Also, in series [3], the MIC90 worked out at 22 µM (≈ 6.46 µg/mL).

As for `CCNc1cc(OC)cc(Nc2c(CC)cccc2CC)n1`, the pIC50 in series [5] was 5.47; in series [1], 5.30; in series [6], 5.43; in series [9], 5.24; in series [2], 6.14. For the same compound, the MIC90 in series [3] worked out at 16 µM (≈ 4.79 µg/mL).

A word on the pIC50: it is the IC50 on a negative log10 scale, so that one unit is a factor of ten. Usually MIC90 stands for the lowest concentration that inhibits either 90% of growth or 90% of the strains tested, depending on the study. One may read the logD as lipophilicity at a set pH, counting ionised and neutral species. High values mean higher lipophilicity, low ones lower lipophilicity. By solubility is commonly meant how much of the substance goes into solution per volume. A higher solubility goes with a readily soluble substance.
